Measurements reported in ChEMBL document CHEMBL3046502, “In vitro antimicrobial and antitubercular studies of novel 6-substituted (pyrrolidin-1-yl)-2(1H)-pyridinones” (2012).
Converted amounts (≈) assume the structure as drawn.

How the values were obtained:
Type in all cases: functional
Pseudomonas aeruginosa = assay: Antimicrobial activity against Pseudomonas aeruginosa MTCC 2488 by broth microdilution method
Escherichia coli = assay: Antimicrobial activity against Escherichia coli MTCC 442 by broth microdilution method
Aspergillus niger = assay: Antimicrobial activity against Aspergillus niger MTCC 282
Candida albicans = assay: Antimicrobial activity against Candida albicans MTCC 227
Streptococcus pyogenes = assay: Antimicrobial activity against Streptococcus pyogenes MTCC 443 by broth microdilution method
Staphylococcus aureus = assay: Antimicrobial activity against Staphylococcus aureus MTCC 96 by broth microdilution method
Aspergillus clavatus = assay: Antimicrobial activity against Aspergillus clavatus MTCC 1323
[1] = system: Mycobacterium tuberculosis; assay: Antimicrobial activity against Mycobacterium tuberculosis H37Rv; settings: for MIC: Mycobacterium tuberculosis, H37Rv

SMILES | MIC (Pseudomonas aeruginosa) | MIC (Escherichia coli) | MIC (Aspergillus niger) | MIC (Candida albicans) | MIC (Streptococcus pyogenes) | MIC (Staphylococcus aureus) | MIC (Aspergillus clavatus) | inhibition (INH) [1] | MIC [1]
COc1ccc(-c2cc(N3CCCC3)n(-c3cccc(Cl)c3)c(=O)c2/N=N/c2ccc(Cl)c(Cl)c2)cc1 | 200 µg/mL (≈ 361 µM) | 62.5 µg/mL (≈ 113 µM) | 500 µg/mL (≈ 903 µM) | 100 µg/mL (≈ 181 µM) | 500 µg/mL (≈ 903 µM) | 200 µg/mL (≈ 361 µM) | 1000 µg/mL (≈ 1810 µM) | 99% | 250 µg/mL (≈ 451 µM)
COc1ccc(-c2cc(N3CCCC3)n(-c3cccc(Cl)c3)c(=O)c2)cc1 | 500 µg/mL (≈ 1310 µM) | 250 µg/mL (≈ 656 µM) | 1000 µg/mL (≈ 2630 µM) | 1000 µg/mL (≈ 2630 µM) | 500 µg/mL (≈ 1310 µM) | 500 µg/mL (≈ 1310 µM) | 1000 µg/mL (≈ 2630 µM) | 99% | 500 µg/mL (≈ 1310 µM)
